According to US4309559A, “Sulphonamides useful as pesticides” (FBC Limited, priority 1977, dated 1982):

Legend:
Format in all cases: in vivo
[1] = tested on: Crabgrass (Digitaria sanguinalis); test: Pre-emergence soil surface spray, crabgrass; conditions: soil surface spray 2.8 kg/ha, 21 days, 0=no effect, 100=complete kill
From the text: (§1) Seeds of the plant species listed below were sown in John Innes I potting compost in aluminium pans, 19 cm long×9.5 cm wide×5.0 cm high, one species per pan. The soil surface was then sprayed with a compound listed below, formulated as a solution in 1:1 by volume aqueous acetone except for the compound of Example 44 which was formulated as an aqueous suspension containing 1000 parts per million of the wetting agent Lissapol NX (nonylphenol/ethylene oxide condensate). Each compound was applied at a rate of 2.8 kg of active ingredient per hectare in 450 liters of spray liquid per hectare. The pans were then watered, and placed in a controlled environment room (22° C., relative humidity 65-85%, 14 hours per day artificial illumination at 17,000 lux) for 21 days. The plants were then visually assessed for any growth regulatory or herbicidal effects. All differences from an untreated control were scored on a scale from 0-100, where 0 signifies no effect and 100 signifies complete kill.

[2] = tested on: Blackgrass (Alopecurus myosuroides); test: Pre-emergence soil surface spray, blackgrass; conditions: soil surface spray 2.8 kg/ha, 21 days, 0=no effect, 100=complete kill
From the text: as §1

Oats (Avena sativa) = test: Soil incorporation (attaclay/sand dust), growth regulatory or herbicidal effects, oats; conditions: 504 h, 21 days, 0=no effect, read-out: growth regulatory or herbicidal effect score; for plant injury at 26 µg/mL: soil incorporation 26 ppm, 100=complete kill
Summary of the method: (§2)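 Dust-formulated compound incorporated in potting compost, 26 or 130 ppm w/v; seeds sown, watered, 21 d at 22° C, 65-85% RH, 14 h/day 13,000 lux. Visual growth-regulatory/herbicidal score 0 (no effect) to 100 (complete kill) vs untreated.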

[3] = tested on: Barnyardgrass (Echinochloa crus-galli); test: Pre-emergence soil surface spray, barnyardgrass; conditions: soil surface spray 2.8 kg/ha, 21 days, 0=no effect, 100=complete kill
From the text: as §1

[4] = tested on: Linseed (Linum usitatissimum); test: Soil incorporation (attaclay/sand dust), growth regulatory or herbicidal effects, linseed; conditions: 504 h, 21 days, 0=no effect, read-out: growth regulatory or herbicidal effect score; for pest or weed control at 26 µg/mL: soil incorporation 26 ppm, 100=complete kill
Summary of the method: as §2

Maize (Zea mays) = test: Soil incorporation (attaclay/sand dust), growth regulatory or herbicidal effects, maize; conditions: 504 h, 21 days, 0=no effect, read-out: growth regulatory or herbicidal effect score; for plant injury at 26 µg/mL: soil incorporation 26 ppm, 100=complete kill
Summary of the method: as §2

Barley (Hordeum vulgare) [5] = test: Post-emergence foliar spray of monocotyledons, barley; conditions: foliar spray 2.8 kg/ha, 14 days, 0=no effect, 100=complete kill
Procedure: (§3) Seeds of the monocotyledon species listed below were sown in anodised aluminium pans, 19 cm long×9.5 cm wide×5.0 cm deep, containing John Innes I potting compost. They were then watered and placed in a controlled environment room (22° C.; 65-85% relative humidity; 14 hours per day artificial illumination at 17,000 lux). 14 days after sowing, the seedlings were given a foliar spray of the compound of Example 44, formulated as an aqueous suspension together with 2000 ppm of the wetting agent Lissapol NX. The dosage rate was adjusted to be 2.8 kg active ingredient in 450 liters per hectare. After a further 14 days in the controlled environment room, the plants were visually assessed for any growth regulatory or herbicidal effect. All differences from an untreated control were scored on a scale from 0-100 where 0 signifies no effect and 100 signifies complete kill.
(§4) The compounds listed below were tested according to the procedure of Example 66 but including rice (Oryza sativa) as an additional test species.

[6] = tested on: Ryegrass (Lolium perenne); test: Soil incorporation (attaclay/sand dust), growth regulatory or herbicidal effects, ryegrass; conditions: 504 h, 21 days, 0=no effect, read-out: growth regulatory or herbicidal effect score; for pest or weed control at 26 µg/mL: soil incorporation 26 ppm, 100=complete kill
Summary of the method: as §2

Rice (Orysae sotiva) = test: Pre-emergence soil surface spray, rice; conditions: soil surface spray 2.8 kg/ha, 21 days, 0=no effect, 100=complete kill
From the text: as §1

[7] = tested on: Wheat (Triticum aestivum); test: Pre-emergence soil surface spray, wheat; conditions: soil surface spray 2.8 kg/ha, 21 days, 0=no effect, 100=complete kill
From the text: as §1

Wild Oat (Avena fatua) = test: Pre-emergence soil surface spray, wild oat; conditions: soil surface spray 2.8 kg/ha, 21 days, 0=no effect, 100=complete kill
From the text: as §1

Mustard (Sinapis alba) [8] = test: Soil incorporation (attaclay/sand dust), growth regulatory or herbicidal effects, mustard; conditions: 504 h, 21 days, 0=no effect, read-out: growth regulatory or herbicidal effect score; for pest or weed control at 26 µg/mL: soil incorporation 26 ppm, 100=complete kill
Summary of the method: as §2

[9] = tested on: Wheat (Triticum aestivum); test: Post-emergence foliar spray of monocotyledons, wheat; conditions: foliar spray 2.8 kg/ha, 14 days, 0=no effect, 100=complete kill
Procedure: as §3, §4

Barley (Hordeum vulgare) [10] = test: Pre-emergence soil surface spray, barley; conditions: soil surface spray 2.8 kg/ha, 21 days, 0=no effect, 100=complete kill
From the text: as §1

Peas (Pisum sativum) [11] = test: Soil incorporation (attaclay/sand dust), growth regulatory or herbicidal effects, peas; conditions: Lathyrus oleraceus, 504 h, 21 days, 0=no effect, read-out: growth regulatory or herbicidal effect score; for pest or weed control at 26 µg/mL: soil incorporation 26 ppm, 100=complete kill
Summary of the method: as §2

[12] = tested on: Barnyardgrass (Echinochloa crus-galli); test: Post-emergence foliar spray of monocotyledons, barnyardgrass; conditions: foliar spray 2.8 kg/ha, 14 days, 0=no effect, 100=complete kill
Procedure: as §3, §4

Mustard (Sinapis alba) [13] = test: Post-emergence foliar spray, herbicidal/growth regulant response, mustard; conditions: 168 h, foliar spray 11.2 kg/ha, 7 days, 0=no effect, 100=complete kill, read-out: herbicidal or growth regulant response index
Summary of the method: (§5)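 Seedlings grown in potting compost at 22 °C, 14 h light, sprayed 14 days after sowing with compound in 1:1 aqueous acetone at 11.2 kg/ha in 450 l/ha. Visual scoring of herbicidal or growth-regulant response after 7 days versus untreated control, 0 = no effect to 100 = complete kill.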

[14] = tested on: Sugarbeet (Beta vulgaris); test: Post-emergence foliar spray, herbicidal/growth regulant response, sugarbeet; conditions: 168 h, foliar spray 11.2 kg/ha, 7 days, 0=no effect, 100=complete kill, read-out: herbicidal or growth regulant response index
Summary of the method: as §5

Fathen = test: Soil incorporation (I), fathen; conditions: I soil incorporation 6.5 ppm, 21 days, 0=no effect, 100=complete suppression
From the text: (§6) Each of the compounds listed below was formulated as: […]
(§7) (I) an attaclay/sand dust and incorporated in John Innes I potting compost at a rate equivalent to 6.5 and 3.25 parts per million weight/volume of active ingredient to soil and placed in anodised aluminium pans, 19 cm long×9.5 cm wide×5.0 cm high. This is approximately equivalent to a surface application of 2.8 and 1.4 kg active ingredient per hectare cultivated to a depth of 5 cm. Seeds of the species listed below were sown in the treated soil, one species per pan, watered and placed in a controlled environment room (22° C.; 65-85% relative humidity and 14 hours artificial illumination at 17,000 lux) for 21 days.
(§8) The plants were then visually assessed for any growth regulatory or herbicidal effects. All differences from an untreated control were scored on a scale from 0-100, where 0 signifies no effect and 100 signifies complete suppression.
(§9) The results are shown in the following table where I stands for soil incorporation and II for surface spray.

[15] = tested on: Linseed (Linum usitatissimum); test: Post-emergence foliar spray, herbicidal/growth regulant response, linseed; conditions: 168 h, foliar spray 11.2 kg/ha, 7 days, 0=no effect, 100=complete kill, read-out: herbicidal or growth regulant response index
Summary of the method: as §5

[16] = tested on: French beans (Phaseolus vulgaris); test: Post-emergence foliar spray, herbicidal/growth regulant response, French beans; conditions: foliar spray 11.2 kg/ha, 7 days, 0=no effect, 100=complete kill
Procedure: Seeds of the plant species listed below were sown in anodised aluminium pans, 19 cm long×9.5 cm wide×5 cm deep, containing John Innes I potting compost. They were then watered and placed in a controlled environment room (22° C.; 65-85% relative humidity; 14 hours per day artificial illumination at 13,000 lux). Fourteen days after sowing, the seedlings received a foliar spray of a compound listed below, formulated as a solution in 1:1 by volume aqueous acetone. The concentration of active ingredient and volume of application were adjusted so as to be equivalent to a rate of 11.2 kg/ha in 450 liters per hectare. After seven days growth in the controlled environment room, the plants were visually assessed for any herbicidal or growth regulant response. All differences from the untreated control were scored according to an index where 0=no effect and 100=complete kill.
The product of Example 95 was tested according to the procedure of Examples 49-55.

Oat (Avena sativa) = test: Post-emergence foliar spray, herbicidal/growth regulant response, oat; conditions: 168 h, foliar spray 11.2 kg/ha, 7 days, 0=no effect, 100=complete kill, read-out: herbicidal or growth regulant response index
Summary of the method: as §5

[17] = tested on: Ryegrass (Lolium perenne); test: Post-emergence foliar spray, herbicidal/growth regulant response, ryegrass; conditions: 168 h, foliar spray 11.2 kg/ha, 7 days, 0=no effect, 100=complete kill, read-out: herbicidal or growth regulant response index
Summary of the method: as §5

Tomato = test: Soil incorporation (I), tomato; conditions: I soil incorporation 6.5 ppm, 21 days, 0=no effect, 100=complete suppression
From the text: as §6, §7, §8, §9

Cotton = test: Soil incorporation (I), cotton; conditions: I soil incorporation 6.5 ppm, 21 days, 0=no effect, 100=complete suppression
From the text: as §6, §7, §8, §9

Peas (Pisum sativum) [18] = test: Post-emergence foliar spray, herbicidal/growth regulant response, peas; conditions: Lathyrus oleraceus, 168 h, foliar spray 11.2 kg/ha, 7 days, 0=no effect, 100=complete kill, read-out: herbicidal or growth regulant response index
Summary of the method: as §5

Carrot = test: Soil incorporation (I), carrot; conditions: I soil incorporation 6.5 ppm, 21 days, 0=no effect, 100=complete suppression
From the text: as §6, §7, §8, §9

Chickweed = test: Soil incorporation (I), chickweed; conditions: I soil incorporation 6.5 ppm, 21 days, 0=no effect, 100=complete suppression
From the text: as §6, §7, §8, §9

Mustard = test: Soil incorporation (I), mustard; conditions: I soil incorporation 6.5 ppm, 21 days, 0=no effect, 100=complete suppression
From the text: as §6, §7, §8, §9

[19] = soil incorporation 130 ppm, 100=complete kill/suppression

Which results are given for CS(=O)(=O)N(CC#N)c1ccc(Cl)c(Cl)c1 [Example 44, N-cyanomethyl-3,4-dichloro-methanesulphonanilide]?
growth regulatory or herbicidal effect score [1]: 0; growth regulatory or herbicidal effect score [2]: 0; plant injury at 26 µg/mL (Oats (Avena sativa)): 60%; growth regulatory or herbicidal effect score [3]: 80; pest or weed control at 26 µg/mL [4]: 20%; plant injury at 26 µg/mL (Maize (Zea mays)): 5%; growth regulatory or herbicidal effect score (Barley (Hordeum vulgare) [5]): 0; pest or weed control at 26 µg/mL [6]: 5%; growth regulatory or herbicidal effect score (Rice (Orysae sotiva)): 0; growth regulatory or herbicidal effect score [7]: 0; growth regulatory or herbicidal effect score (Wild Oat (Avena fatua)): 0; pest or weed control at 26 µg/mL (Mustard (Sinapis alba) [8]): 40%; growth regulatory or herbicidal effect score [9]: 0; growth regulatory or herbicidal effect score (Barley (Hordeum vulgare) [10]): 0; pest or weed control at 26 µg/mL (Peas (Pisum sativum) [11]): 0%; growth regulatory or herbicidal effect score [12]: 100

CCOC(=O)C(CC)N(c1c(C)cccc1C)S(C)(=O)=O (centres unmarked) [Example 95] was tested. Which pest or weed control at 11200 g/ha (Mustard (Sinapis alba) [13]) did it give?
Its pest or weed control at 11200 g/ha is 100%.

And the plant injury at 26 µg/mL (Oats (Avena sativa))?
Its plant injury at 26 µg/mL is 0%.

And the plant injury at 130 µg/mL (Oats (Avena sativa); [19])?
The plant injury at 130 µg/mL was 100%.

What about the plant injury at 11200 g/ha [14] of the same compound?
Its plant injury at 11200 g/ha is 100%.

And the “growth regulatory or herbicidal effect score” value (Fathen)?
Its value is 100.

And the pest or weed control at 11200 g/ha [15]?
Its pest or weed control at 11200 g/ha is 25%.

And the pest or weed control at 26 µg/mL [4]?
Its pest or weed control at 26 µg/mL is 0%.

And the pest or weed control at 130 µg/mL [4, 19]?
Its pest or weed control at 130 µg/mL is 80%.

And the “herbicidal or growth regulant response index” value [16]?
The value was 100.

And the plant injury at 11200 g/ha (Oat (Avena sativa))?
The plant injury at 11200 g/ha was 20%.

And the plant injury at 26 µg/mL (Maize (Zea mays))?
The plant injury at 26 µg/mL was 50%.

What about the plant injury at 130 µg/mL (Maize (Zea mays); [19]) of the same compound?
Its plant injury at 130 µg/mL is 100%.

And the pest or weed control at 11200 g/ha [17]?
The pest or weed control at 11200 g/ha was 15%.

What about the pest or weed control at 26 µg/mL [6] of the same compound?
Its pest or weed control at 26 µg/mL is 90%.

And the pest or weed control at 130 µg/mL [6, 19]?
The pest or weed control at 130 µg/mL was 100%.

And the “growth regulatory or herbicidal effect score” value (Tomato)?
The value was 90.

And the pest or weed control at 26 µg/mL (Mustard (Sinapis alba) [8])?
The pest or weed control at 26 µg/mL was 90%.

What about the pest or weed control at 130 µg/mL (Mustard (Sinapis alba) [8]; [19]) of the same compound?
Its pest or weed control at 130 µg/mL is 100%.

What about the “growth regulatory or herbicidal effect score” value (Cotton) of the same compound?
Its value is 5.

And the pest or weed control at 11200 g/ha (Peas (Pisum sativum) [18])?
Its pest or weed control at 11200 g/ha is 15%.

And the “growth regulatory or herbicidal effect score” value (Carrot)?
The value was 0.

What about the “growth regulatory or herbicidal effect score” value (Chickweed) of the same compound?
Its value is 90.

What about the “growth regulatory or herbicidal effect score” value (Mustard) of the same compound?
The value was 50.

And the pest or weed control at 26 µg/mL (Peas (Pisum sativum) [11])?
Its pest or weed control at 26 µg/mL is 20%.

What about the pest or weed control at 130 µg/mL (Peas (Pisum sativum) [11]; [19]) of the same compound?
The pest or weed control at 130 µg/mL was 30%.
